Assay results published in patent US6211170A, “Azetidinone derivatives for the treatment of HCMV infections” (Boehringer Ingelheim (Canada) Ltd., priority 1998, dated 2001).
pEC50, pIC50: −log10 of the molar value. Read-outs that look alike come from different tables or passages of the source.

Assays:
HCMV NO protease = target: T1, HCMV NO protease (Human cytomegalovirus, UniProt P16753); assay: HCMV NO Protease Assay (fluorogenic substrate cleavage); assay type: biochemical; details: HCMV NO protease 100 nM, substrate 5 μM, pH 8, 2.5 h at 30°
T1 construct: HCMV NO protease
T1 sequence (P16753 1-256): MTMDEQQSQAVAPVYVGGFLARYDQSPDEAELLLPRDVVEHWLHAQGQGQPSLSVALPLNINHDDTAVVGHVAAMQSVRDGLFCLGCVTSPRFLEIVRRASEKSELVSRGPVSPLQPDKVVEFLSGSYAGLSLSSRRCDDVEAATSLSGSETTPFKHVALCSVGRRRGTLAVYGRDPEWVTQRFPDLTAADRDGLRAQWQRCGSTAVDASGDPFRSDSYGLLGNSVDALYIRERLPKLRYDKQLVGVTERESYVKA
Procedure: This particular assay determines the ability of a test compound to inhibit the activity (IC50) of HCMV protease. More specifically, in the assay described herein, the inhibitory activity of the test compound is evaluated on the basis of its ability to interfere with the HCMV NO protease cleavage of a fluorogenic peptide substrate which in turn is based on the maturation cleavage site of the enzyme.
1. HCMV NO Protease Assay
Material & Methods: Fluorescence measurements were recorded on a Perkin-Elmer LS-50B spectrofluorimeter equipped with a plate reader accessory. UV measurements were recorded on a Thermomax® microplate reader from Molecular Devices Corporation, Menlo Park, Calif., USA.
HCMV NO protease was assayed with an internally quenched fluorogenic substrate based on the maturation cleavage site (Abz-[…](3-NO2)R--OH, kcat /KM =260 M^-1 s^-1). The fluorescence increase upon cleavage of the Ala-Ser amide bond was monitored using excitation λ=312 nm (slit 2.5 nm) and emission λ=415 nm (slit 5 nm). A protocol adaptable to a 96-well plate format was designed for the determination of IC50 values of inhibitors.
After this period, enzymatic hydrolysis of the fluorogenic substrate in the absence of inhibitor led to about a 30% conversion. Quenching was not required before fluorescence measurement since the total scanning time by the plate reader accessory was brief relative to the duration of the reaction. The aqueous incubation buffer contained 50 mM tris(hydroxymethyl)aminomethane.HCl pH 8, 0.5M Na2 SO4, 50 mM NaCl, 0.1 mM EDTA, 1 mM tris(2-carboxyethyl)phosphine.HCl, 3% v/v DMSO and 0.05% w/v casein. The final concentrations of HCMV NO protease (expressed in terms of total monomer concentration) and substrate were 100 nM and 5 μM respectively. IC50 values were obtained through fitting of the inhibition curve to a competitive inhibition model using SAS NLIN procedure. The mode of inhibition was determined by measurements of the initial rates (in cuvettes) at various substrate concentrations in the buffer as described above. The IC50 values listed in the following tables were obtained according to this assay.

[1] = tested on: HCMV (strain AD169, ATCC VR-538); assay: Plaque Reduction Assay (PRA) in HCMV-infected Hs-68 cells; assay type: cell-based, human cytomegalovirus (HCMV)
Procedure: B. Plaque Reduction Assay (PRA):
Hs-68 cells (ATCC # CRL 1635) were seeded in 12-well plates at 83,000 cells/well in 1 mL of DMEM medium (Gibco Canada Inc.) supplemented with 10% fetal bovine serum (FBS, Gibco Canada Inc.). The plates were incubated for 3 days at 37° to allow the cells to reach 80-90% confluency prior to the assay.
The medium was removed from the cells by aspiration. The cells were then infected with approximately 50 PFU of HCMV (strain AD169, ATCC VR-538) in DMEM medium supplemented with 5% inactivated FBS (assay medium). (DMEM medium is commercially available and has been described by R. Dulbecco et al., Virology 1959, 8, 396.) The virus was allowed to adsorb to cells for 2 h at 37°. Following viral adsorption, the medium was removed from the wells by aspiration. The cells were then incubated with or without 1 mL of appropriate concentrations of test reagent in assay medium. Occasionally, test compounds were added 24 h post-infection. After 4 days of incubation at 37°, the medium was exchanged with fresh medium containing test compound and 4 days later the cells were fixed with 1% aqueous formaldehyde and stained with a 2% violet solution in 20% ethanol in water. Microscopic plaques were counted using a stereomicroscope. Drug effects were calculated as a percent reduction in the number of plaques in the presence of each drug concentration compared to the number observed in the absence of drug. Ganciclovir was used as a positive control in all experiments.

[2] = Cytotoxicity, tetrazolium salt (MTT) metabolic assay; assay type: cell-based; details: cytotoxic effects, read-out: TC50 (the source's name)
Procedure: Cytotoxic effects noted as TC50 in the following tables were determined according to the tetrazolium salt (MTT) metabolic assay, F. Denizot and F. Lang, J. Immun. Meth., 1986, 89, 271.

[3] = Human betaherpesvirus 5, Hs68, 192 h, plaque reduction, HCMV strain AD169, Hs-68 cells, 8 days, read-out: EC50
[4] = Human betaherpesvirus 5, AD169, Hs68, 192 h

Structure (SMILES)	pIC50 (HCMV NO protease)	pEC50 [1, 3]	CC50 [2]	pEC50 [1, 4]
CC[C@@H](NC(=O)N1C(=O)[C@@H](C)[C@@H]1CSc1ccncc1)c1ccccc1 [Entry 118]	5.80	4.26	199 µM	–
CC[C@@H](NC(=O)N1C(=O)[C@@H](C)[C@@H]1CSCC(C)C)c1ccccc1 [Entry 117]	5.46	3.96	> 250 µM	–
CC[C@@H](NC(=O)N1C(=O)C[C@@H]1COC(=O)c1ccccc1)c1ccccc1 [Entry 145]	6.92	–	250 µM	3.60
CC[C@@H](NC(=O)N1C(=O)C[C@@H]1CSc1nccn1C)c1ccccc1 [Entry 140]	6.15	–	> 268 µM	< 3.57
O=C1C[C@H](CSc2ncccn2)N1C(=O)N1CCC[C@@H]1c1ccccc1 [Entry 403, 1-(2(R)-phenyl-pyrrolidine-1-carbonyl)-4-(pyrimidin-2-ylsulfanylmethyl)azetidin-2-one]	4.85	4.02	> 250 µM	–
CN(Cc1ccc(C(F)(F)F)cc1)C(=O)N1C(=O)C[C@@H]1CSc1nc2ccccc2o1 [Entry 319]	5.77	3.80	> 250 µM	–
CC[C@@H](NC(=O)N1C(=O)C[C@@H]1[C@H](C)Sc1ncccn1)c1ccccc1 [Entry 208, 2-oxo-4(R)-[1(S)-(pyrimidin-2-ylsulfanyl)ethyl]-azetidine-1-carboxylic acid (1(R)-phenylpropyl)amide]	5.35	< 3.60	> 250 µM	–
CC[C@@H](NC(=O)N1C(=O)C[C@@H]1CSc1ccccn1)c1ccccc1 [Entry 103]	5.40	3.82	> 250 µM	–
CC[C@@H](NC(=O)N1C(=O)C[C@@H]1CSc1ccccc1)c1ccccc1 [Entry 129]	5.60	< 3.60	> 250 µM	–
CN(Cc1ccc(C(F)(F)F)cc1)C(=O)N1C(=O)C[C@@H]1CSc1nnnn1C [Entry 320]	6.33	4.16	> 250 µM	–
CC[C@@H](NC(=O)N1C(=O)[C@@H](C)[C@@H]1CSc1nnnn1C)c1ccccc1 [Entry 119]	5.85	4.10	> 250 µM	–
CC[C@@H](NC(=O)N1C(=O)[C@@H](C)[C@@H]1CSc1nccc(C)n1)c1ccccc1 [Entry 123]	6.01	3.82	> 250 µM	–
CN(Cc1ccc2c(c1)OCO2)C(=O)N1C(=O)C[C@@H]1CSc1ncccn1 [Entry 317]	5.05	3.85	> 249 µM	–
CC[C@@H](NC(=O)N1C(=O)[C@@H](C)[C@@H]1CSc1ccccn1)c1ccccc1 [Entry 108]	5.92	3.74	> 250 µM	–
CN(Cc1ccc(C(F)(F)F)cc1)C(=O)N1C(=O)C[C@@H]1CSc1nc2ncccc2s1 [Entry 316]	5.80	4.85	> 18 µM	–
CC[C@@H](NC(=O)N1C(=O)[C@@H](C)[C@@H]1CSC1CCCCC1)c1ccccc1 [Entry 114]	5.52	< 3.60	> 250 µM	–
CC[C@@H](NC(=O)N1C(=O)[C@@H](C)[C@@H]1CSC1CCCC1)c1ccccc1 [Entry 121]	5.37	3.82	> 250 µM	–

Structure (SMILES)	pIC50 (HCMV NO protease)	pEC50 [1, 3]	CC50 [2]	pEC50 [1, 4]
CC[C@@H](NC(=O)N1C(=O)[C@@H](C)[C@@H]1CSc1nc2ncccc2s1)c1ccccc1 [Entry 125]	5.96	3.85	> 250 µM	–
CC[C@@H](NC(=O)N1C(=O)C[C@@H]1COC(=O)c1ccc2ccccc2c1)c1ccccc1 [Entry 133]	6.02	–	> 26 µM	4.74
CC[C@@H](NC(=O)N1C(=O)[C@@H](C)[C@@H]1CSc1nc(C)cc(C)n1)c1ccccc1 [Entry 126]	5.55	4.60	> 63 µM	–
CC[C@@H](NC(=O)N1C(=O)C[C@@H]1COC(=O)Nc1ccccc1)c1ccccc1 [Entry 131]	6.40	–	> 32 µM	4.70
CC[C@@H](NC(=O)N1C(=O)[C@@H](C)[C@@H]1CSc1ccoc1C)c1ccccc1 [Entry 115]	5.38	4.07	> 250 µM	–
CN(Cc1ccc(C(F)(F)F)cc1)C(=O)N1C(=O)C[C@@H]1CSc1ncccn1 [Entry 301]	5.77	4.02	> 250 µM	–
CC[C@@H](NC(=O)N1C(=O)[C@@H](C)[C@@H]1CSc1nc2ccccc2s1)c1ccccc1 [Entry 109]	5.92	3.80	> 250 µM	–
CC[C@@H](NC(=O)N1C(=O)C[C@@H]1COc1ccccn1)c1ccccc1 [Entry 101]	5.08	4.26	151 µM	–
CC[C@@H](NC(=O)N1C(=O)C[C@@H]1CSc1nc2ncccc2s1)c1ccccc1 [Entry 139]	6.10	–	> 53 µM	< 4.28
CC[C@@H](NC(=O)N1C(=O)[C@@H](C)[C@@H]1CSc1nc2ccccc2o1)c1ccccc1 [Entry 112]	6.03	3.85	> 250 µM	–
COC(=O)c1ccc(CN(C)C(=O)N2C(=O)C[C@@H]2CSc2ncccn2)cc1 [Entry 302]	5.41	3.77	> 250 µM	–
CC[C@@H](NC(=O)N1C(=O)C[C@@H]1CN(C)Cc1ccccc1)c1ccccc1 [Entry 137]	5.00	< 3.83	> 147 µM	–
CN(Cc1ccccc1)C(=O)N1C(=O)C[C@@H]1CSc1ncccn1 [Entry 318]	5.00	3.82	> 150 µM	–
CC[C@@H](NC(=O)N1C(=O)C[C@@H]1[C@@H](C)Sc1ncccn1)c1ccccc1 [Entry 209, 2-oxo-4(R)-[1(R)-(pyrimidin-2-ylsulfanyl)ethyl]azetidine-1-carboxylic acid (1(R)-phenylpropyl)amide]	5.47	4.10	> 168 µM	–
CC[C@@H](NC(=O)N1C(=O)C[C@@H]1CN1CCCCC1)c1ccccc1 [Entry 206, 2-oxo-4(R)-(piperidin-1-ylmethyl)azetidine-1-carboxylic acid (1(R)-phenylpropyl)amide]	5.43	< 3.60	> 250 µM	–
CC[C@@H](NC(=O)N1C(=O)C[C@@H]1CSC)c1ccccc1 [Entry 127, 4(R)-(methylsulfanyl)methyl-2-oxoazetidine-1-carboxylic acid (1(R)-phenylpropyl)amide]	5.42	< 3.60	> 250 µM	–
